Measurements: publication PMC7139549, “TLD1433 Photosensitizer Inhibits Conjunctival Melanoma Cells in Zebrafish Ectopic and Orthotopic Tumour Models” (Cancers, 2020)

Key:
[1] = system: wild type zebrafish embryos; assay: Maximum tolerated dose in wild type zebrafish embryos; format: in vivo; conditions: for Maximum Tolerated Dose (MTD): Wild Type Embryos, 4 treatments, 90 min green light 114 J.cm^−2; for concentration not toxic to embryos in the dark: wild type embryos
Method: Water administration (WA) of drugs by skin epithelial cell absorption and drinking is commonly used in zebrafish drug experiments. […] In addition, we also tested IV of TLD1433 by direct injection into the dorsal vein, as well behind the eye injections for RO administration. For IV and RO administration, the compound was injected four times into the embryos at 3, 4, 5 and 6dpf, followed by 60 min drug-to-light interval and the same kinetic and irradiation regime as for the WA administration (Figure 5A).
(A) Schedule of TLD1433 treatment in wild type zebrafish. […] (B) WA, (C) IV, (D) RO. (B–D) Images were made of irradiated (light) and non-irradiated (dark) embryos (n = 30) at 6dpf and the percentages of mortality, malformation and fish length were calculated (shown as means ± SD from three independent experiments). Representative images of embryos under dark and light conditions are shown.
At 2.5, 3.5, 4.5, 5.5 dpf, TLD1433 was added to the fish water and maintained for 12 h. […] At 3, 4, 5, 6 dpf, 1nL of TLD1433 was injected via the dorsal vein or the RO site and maintained for 1 h. […] The images of treated and wild type embryos at 6 dpf were taken using a DFC420C camera coupled to a Leica MZ16FA fluorescence microscope. In order to determine the MTD of tumour cell bearing zebrafish, TLD1433 was performed according to the same procedure, delivered by WA, IV and […] administration as described above for the wild type embryos.

[2] = system: CRMM2 cells injected into the Duct of Cuvier of zebrafish embryos; assay: Zebrafish ectopic CM tumour model, CRMM2; format: in vivo, Zebrafish (Danio rerio); conditions: for PI (Fluorescence Intensity) / PI (Tumour Area) / Relative Tumour Burden as Measured by Fluorescence Intensity / Tumour Area: CRMM2, Ectopic Model; for PI (Fluorescence Intensity) / PI (Tumour Area): 0 vs 114 J.cm^−2
Method: (§1) The zebrafish ectopic conjunctival melanoma tumour model has been described previously. In this model, around 200 fluorescent CM cells are injected into the Duct of Cuvier at 2 dpf, and then disseminate through the blood circulation and grow in the head and tail. To establish the orthotopic tumour model, around 100 red, (td)Tomato fluorescent CRMM1 or CRMM2 cells were injected RO at 2 dpf into tg(Fli:GFP/Casper), endothelial reporter transgenic zebrafish with green fluorescent vasculature and examined by fluorescent microscopy at day 1 and 4 after engraftment (Figure 6A). Tumour expansion at the injection site was measured as fluorescence intensity and tumour area.
(§2) For cancer cell injection, two days post-fertilization (dpf), dechorionated zebrafish embryos were anaesthetized with 0.003% tricaine (Sigma) and plated on a 10 cm Petri dish covered with 1.5% of solidified agarose. CRMM1 and CRMM2 cells were suspended in PBS containing 2% polyvinylpyrrolidone (PVP; Sigma-Aldrich) with a concentration of 50,000 cells/µL and loaded into borosilicate glass capillary needles (1 mm O.D. × 0.78 mm I.D.; Harvard Apparatus). In the ectopic model, 200 (td)Tomato fluorescent CM cells were injected into the Duct of Cuvier or at 2 dpf, which led to dissemination through the blood circulation and outgrowth in the head and tail. In orthotopic tumour model, 100 (td)Tomato fluorescent CRMM1 or CRMM2 cells were injected RO in 2 dpf embryos using a Pneumatic Picopump and a manipulator (WPI). After injection, the embryos were incubated in a 34 °C incubator. Images were acquired at 1-, 2- and 4-days post injection (dpi) with a Leica M165 FC stereo fluorescence microscope. Tumor growth was quantified by calculating the total fluorescence intensity and area with the ZF4 pixel counting program (Leiden). Each experiment was performed at least 3 times with a group size of >30 embryos.
(§3) Fluorescent CRMM1 and CRMM2 cells were injected at 2 dpf into the Duct of Cuvier (ectopic model) and behind the eye (orthotopic model) and TLD1433 was delivered by WA, IV and RO administration with or without a light treatment as described in 4.8. For the WA administration, the 4.6 nM TLD1433 solution was added to the tumour cells injected zebrafish at 2.5, 3.5, 4.5, 5.5 dpf and maintained for 12 h. At 3, 4, 5, 6 dpf, the fish water was refreshed, and after 1 h, embryos were exposed to green light for 90 min (21 mW/cm^2, 114 J/cm^2, 520 nm). For the IV and RO administration, 1 nL of 2.3 mM TLD1433 solution was injected via the dorsal vein or the RO site at 3, 4, 5, 6 dpf. After 1 h interval, the embryos were exposed to green light for 90 min (21 mW/cm^2, 114 J/cm^2, 520 nm). After treatment, the embryos images were acquired with a Leica M165 FC stereo fluorescence microscope. Tumor growth was quantified by calculating the total fluorescence intensity and area with the ZF4 pixel counting program (Leiden). Each experiment was performed at least 3 times with a group size of >30 embryos.

[3] = system: CRMM1 cells injected behind the eye (RO) of zebrafish embryos; assay: Zebrafish orthotopic CM tumour model, CRMM1; format: in vivo, Zebrafish (Danio rerio); conditions: for PI (Fluorescence Intensity) / PI (Tumour Area) / Relative Tumour Burden as Measured by Fluorescence Intensity / Tumour Area: CRMM1, Orthotopic Model; for PI (Fluorescence Intensity) / PI (Tumour Area): 0 vs 114 J.cm^−2
Method: as §1, §2, §3

[4] = Intravenous (1 nL of 2.3 mM), Light Dose 0 J.cm^−2, vs control dark group (100%)
[5] = Intravenous (1 nL of 2.3 mM), Light Dose 114 J.cm^−2, vs control dark group (100%)
[6] = Retro orbital (1 nL of 2.3 mM), Light dose 0 J.cm^−2, vs control dark group (100%)
[7] = Retro orbital (1 nL of 2.3 mM), Light dose 114 J.cm^−2, vs control dark group (100%)
[8] = Retro-orbital (1 nL of 2.3 mM), Light Dose 0 J.cm^−2, vs control dark group (100%)
[9] = Retro-orbital (1 nL of 2.3 mM), Light Dose 114 J.cm^−2, vs control dark group (100%)
[10] = Water (4.6 nM), Light dose 0 J.cm^−2, vs control dark group (100%)
[11] = Water (4.6 nM), Light dose 114 J.cm^−2, vs control dark group (100%)
[12] = CRMM2, ectopic model, IV 2.3 mM, light 114 J.cm^−2
[13] = CRMM2, ectopic model, RO 2.3 mM, green light 114 J.cm^−2
[14] = CRMM1, orthotopic model, RO 2.3 mM, green light 114 J.cm^−2

Cc1ccnc(-c2cc(C)ccn2)c1.Cc1ccnc(-c2cc(C)ccn2)c1.[Cl-].[Cl-].[Ru+2].c1csc(-c2ccc(-c3ccc(-c4nc5c6cccnc6c6ncccc6c5[nH]4)s3)s2)c1 [TLD1433]
Maximum Tolerated Dose (MTD) ([1]; Intravenous 1 nL, 60 min DLI): 4.6 mM | Maximum Tolerated Dose (MTD) ([1]; Retro-orbital 1 nL, 60 min DLI): 4.6 mM | Maximum Tolerated Dose (MTD) ([1]; Water administration, 12 h DLI): 9.2e-06 mM | concentration not toxic to embryos in the dark ([1]; IV 1 nL): 11500 µM | concentration not toxic to embryos in the dark ([1]; RO 1 nL): 11500 µM | concentration not toxic to embryos in the dark ([1]; WA): 0.023 µM | PI (Fluorescence Intensity) ([2]; Intravenous (1 nL of 2.3 mM)): 1.4 | PI (Tumour Area) ([2]; Intravenous (1 nL of 2.3 mM)): 2.0 | Relative Tumour Burden as Measured by Fluorescence Intensity [2, 4]: 97% | Tumour Area [2, 4]: 99% | Relative Tumour Burden as Measured by Fluorescence Intensity [2, 5]: 69% | Tumour Area [2, 5]: 50% | PI (Tumour Area) ([2]; Retro orbital (1 nL of 2.3 mM)): 2.0 | Tumour Area [2, 6]: 94% | Tumour Area [2, 7]: 48% | PI (Fluorescence Intensity) ([2]; Retro-orbital (1 nL of 2.3 mM)): 1.6 | Relative Tumour Burden as Measured by Fluorescence Intensity [2, 8]: 93% | Relative Tumour Burden as Measured by Fluorescence Intensity [2, 9]: 60% | PI (Fluorescence Intensity) ([2]; Water (4.6 nM)): 0.93 | PI (Tumour Area) ([2]; Water (4.6 nM)): 0.90 | Relative Tumour Burden as Measured by Fluorescence Intensity [2, 10]: 90% | Tumour Area [2, 10]: 92% | Relative Tumour Burden as Measured by Fluorescence Intensity [2, 11]: 96% | Tumour Area [2, 11]: 102% | inhibition of tumour area [2, 12]: 50% | inhibition of tumour fluorescence intensity [2, 12]: 31% | diminished fluorescence intensity [2, 13]: 40% | diminished tumour area [2, 13]: 52% | effect on tumour burden (in words) ([2]; CRMM2, ectopic model, WA at the MTD (4.6 nM), light 114 J.cm^−2): did not inhibit tumour burden | PI (Fluorescence Intensity) ([3]; Intravenous (1 nL of 2.3 mM)): 0.82 | PI (Tumour Area) ([3]; Intravenous (1 nL of 2.3 mM)): 0.87 | Relative Tumour Burden as Measured by Fluorescence Intensity [3, 4]: 91% | Tumour Area [3, 4]: 109% | Relative Tumour Burden as Measured by Fluorescence Intensity [3, 5]: 111% | Tumour Area [3, 5]: 126% | PI (Tumour Area) ([3]; Retro orbital (1 nL of 2.3 mM)): 4.1 | Tumour Area [3, 6]: 125% | Tumour Area [3, 7]: 31% | PI (Fluorescence Intensity) ([3]; Retro-orbital (1 nL of 2.3 mM)): 1.8 | Relative Tumour Burden as Measured by Fluorescence Intensity [3, 8]: 120% | Relative Tumour Burden as Measured by Fluorescence Intensity [3, 9]: 65% | PI (Fluorescence Intensity) ([3]; Water (4.6 nM)): 1.0 | PI (Tumour Area) ([3]; Water (4.6 nM)): 1.0 | Relative Tumour Burden as Measured by Fluorescence Intensity [3, 10]: 96% | Tumour Area [3, 10]: 90% | Relative Tumour Burden as Measured by Fluorescence Intensity [3, 11]: 96% | Tumour Area [3, 11]: 89% | diminished fluorescence intensity [3, 14]: 35% | diminished tumour area [3, 14]: 69% | effect on tumour burden (in words) ([3]; CRMM1, orthotopic model, WA at the MTD (4.6 nM), light 114 J.cm^−2): did not inhibit tumour burden
